{"source": "patent US8309535B2", "about": "“Compositions and methods to treat recurrent medical conditions” (priority 2003, dated 2012)", "key": {"[1]": {"conditions": "cited from earlier work"}, "[2]": {"tested_on": "subjects having specific phobias", "conditions": "cited from earlier work"}, "[3]": {"tested_on": "subjects on chronic dosing schedules (chronically ill with tuberculosis)", "conditions": "500-1000 mg/day, side effects correlate with dosage amount; cited from earlier work"}, "[4]": {"tested_on": "subject afflicted with recurring neuropathic pain", "assay": "Example 1: treatment of a subject with recurring neuropathic pain", "format": "in vivo, human", "experimental": "After seven days, the dose of amitriptyline was doubled to 20 mg."}, "[5]": {"tested_on": "subject with paralytic sexual performance anxiety", "conditions": "subject unresponsive to purely behavioral interventions; cited from earlier work"}}, "note": "Structures can show the parent of a compound that is named as a salt."}
{"smiles": "N[C@@H]1CON=C1O", "note": "[DCS, D-cycloserine]", "values": [{"measurement": "time of peak blood levels after dosing", "setting": "[1]; after dosing", "value": "3 to 8", "unit": "h"}, {"measurement": "half-life", "setting": "[1]; in vivo", "value": 10, "unit": "h"}, {"measurement": "average number of psychotherapy sessions to reach a clinical cure", "setting": "[2]; DCS in conjunction with psychotherapy, psychotherapy alone required an average of eight sessions", "value": "two"}, {"measurement": "fewer therapy sessions needed to reach clinical cure", "setting": "[2]; DCS with cognitive behavioral therapy sessions, phobic disorders", "value": 75, "unit": "%"}, {"measurement": "infrequent side effects", "setting": "[3]", "value": "drowsiness, headache, confusion, tremor, vertigo, and memory difficulties, paresthesias, and seizure"}]}
{"smiles": "CN(C)CCC=C1c2ccccc2CCc2ccccc21", "note": "[amitriptyline hydrochloride]", "values": [{"measurement": "effect on pain", "setting": "[4]; 10 mg per day for seven days", "value": "little effect on the pain"}, {"measurement": "effect on pain", "setting": "[4]; 20 mg per day, after two days on the higher dose", "value": "substantially subsided"}]}
{"smiles": "CCCc1nn(C)c2c(=O)[nH]c(-c3cc(S(=O)(=O)N4CCN(C)CC4)ccc3OCC)nc12", "note": "[sildenafil]", "values": [{"measurement": "response to pharmaceutical treatment", "setting": "[5]", "value": "responded to pharmaceutical treatment"}]}
